Patent US20080027023A1, “Antiproliferative Compositions Comprising Aryl Substituted Xylopyranoside Derivatives” (priority 2004, published 2008)

Tests used:
rat C6 glioma cells = assay: Cellular growth assay (crystal violet, A600), rat C6 glioma cells; assay type: cell-based; conditions: for inhibits growth: FIG. 1B; for growth-inhibitory effect compared to untreated cells (control): FIG. 1A; for effect on cell growth: FIG. 4
From the text: (§1) Cells were obtained from American type culture collection (ATCC, Rockville, Md.). Regular cell culture media, L-glutamine, penicillin-streptomycin, trypsin, and donor calf serum were obtained from Life Technologies. Dulbeccos Modified Earles Medium, medium 199 and Ham's F-12 medium were purchased from Sigma, difluoromethylornithine (DFMO) was from ILEX Oncology, San Antonio, Tex. Epidermal growth factor was purchased from Genzyme, Cambridge, Mass. and crystal violet from Merck, Germany.
(§2) Cells were cultured as monolayers in Dulbeccos Modified Earles Medium (DMEM) supplemented with 10% (v/v) fetal bovine serum, 2 mM L-glutamine, penicillin (100 U/mL) and streptomycin (100 μg/mL) in an incubator with humidified atmosphere and 5% CO2 at 37° C.
(§3) The growth assay procedure has been described elsewhere (Mani et al., 1998, Cancer Res. 58: 1099-1104). Cells were seeded into 96-well microculture plates at 3000 cells/well in DMEM supplemented with insulin (10 ng/mL), transferrin (25 ng/mL) and 10% fetal calf serum. After 4 h of plating the cells were placed in serum-free Ham's F-12 medium supplemented with insulin (10 ng/mL) and transferrin (25 ng/mL) for an additional 24 h. […] In some experiments cells were pre-treated with DFMO to up-regulate spermine uptake (Belting et al., 2003, J. Biol. Chem. 278: 47181-47189). Controls without growth factor as well as solvent (DMSO) controls were included. The total time of exposure to the various agents was 5 days. Cells were fixed in 1% glutaraldehyde dissolved in Hanks balanced salt solution (NaCl 80 g/L, KCl 4 g/l, glucose 10 g/L, KH2PO4 600 mg/L, NaHPO4 475 mg/L) for 15 min, then cell nuclei were stained with 0.1% crystal violet. After washing and cell lysis for 24 h in Triton X-100, the amount of bound dye was measured at A600 in a microplate photometer (Titertek multiscan). The results are presented as the difference between A600 obtained after 5 days and that obtained immediately after seeding of the cells (t=0).

[1] = tested on: human bladder carcinoma T24 cells; assay: Cellular growth assay, human bladder carcinoma T24 cells; assay type: cell-based; conditions: for cytotoxic effect on T24 cells: 0.5 mM xyloside, FIG. 5A / FIG. 2
From the text: as §1, §2, §3

[2] = tested on: normal human lung fibroblasts; assay: Cellular growth assay, normal human lung fibroblasts; assay type: cell-based
From the text: as §1, §2
The growth assay procedure has been described elsewhere (Mani et al., 1998, Cancer Res. 58: 1099-1104). Cells were seeded into 96-well microculture plates at 3000 cells/well in DMEM supplemented with insulin (10 ng/mL), transferrin (25 ng/mL) and 10% fetal calf serum. After 4 h of plating the cells were placed in serum-free Ham's F-12 medium supplemented with insulin (10 ng/mL) and transferrin (25 ng/mL) for an additional 24 h. […] After washing and cell lysis for 24 h in Triton X-100, the amount of bound dye was measured at A600 in a microplate photometer (Titertek multiscan). […]

A549 cells [3] = assay: Growth inhibition of A549 cells; assay type: cell-based; conditions: combination with DFMO and spermine-NONOate
[4] = tested on: SV40 virus infected fibroblasts; assay: Growth inhibition of SV40 virus infected fibroblasts; assay type: cell-based; conditions: combination with DFMO and spermine-NONOate
HepG2 hepatoma cells [5] = assay: Growth inhibition of HepG2 hepatoma cells; assay type: cell-based; conditions: combination with DFMO and spermine-NONOate
[6] = tested on: rat C6 glioma cells implanted subcutaneously; assay: Subcutaneous C6 glioma tumors in SCID mice; assay type: in vivo
Procedure: (§4) Treatment with xyloside was daily contralateral subcutaneous injections (1.7 mM solution; 0.5 ml for mice, 5 ml for rats) for 2 weeks. DFMO (0.1% w/v) was administered via the drinking water.
(§5) Female SCIDnodCA mice (7-8 weeks old) or Fisher rats (12 week old) were kept under pathogen-free conditions in the animal barrier facility at the Biomedical Center, Lund University, according to the Swedish guidelines for humane treatment of laboratory animals. The experimental set-up was approved by the ethical committee for animal research in Malmö/Lund, Sweden. To generate tumors, rat C6 glioma cells or human bladder T24 carcinoma cells (1×10^6 cells in 200 μl PBS) were injected subcutaneously in the dorsal region of 7-8 week old mice (n=4-8) or intracerebrally in rats.
(§6) In the present studies, animals (n=8) received 1.7 mM Xyl-2-Nap-6-OH, i.e. a saturated solution, either ad libitum via the drinking water, or by daily injections either subcutaneously (0.5 ml for mice, 5 ml for rats) or intraperitoneally (0.5 ml) for a total period of up to 2 weeks. Controls received drinking water with no additives or daily injections with sterile water. Food and water intake and changes in body weight were monitored. The xyloside was administered either concurrent with or 3 weeks post-injection. In the latter case, the animals were randomly divided into control and treatment groups with no significant differences in tumor volume. The animals were sacrificed following 2-3 weeks of treatment, and tumor mass or volume was recorded.

[7] = tested on: rat C6 glioma cells implanted intracerebrally; assay: Intracerebral C6 glioma tumors in rats; assay type: in vivo
Procedure: as §4, §5
as §6, with “In the latter case, the animals were randomly divided into control and treatment groups with no significant differences in tumor volume.” left out

[8] = tested on: tumor cells located subcutaneously or orthotopically; assay: Other animal experiments, tumor-bearing mice, various routes of administration; assay type: in vivo
Procedure: as §5, §6
Treatment with Xyl-2-Nap-6-OH reduce the average tumor load by 70-97% in mice receiving the compound concomitant with tumor cell inoculation as well as in mice with pre-formed tumors. […] Side-effects via inhibition of proteoglycan synthesis in cartilage and connective tissues is unlikely, as xyloside concentrations greater than 2 mM are required for their inhibition in vitro (Moses et al., 1999, Eur, J. Biochem. 26: 879-884).

[9] = Saturated solution used for dosing; assay type: physicochemical; conditions: drinking water / injection solution
Procedure: as §6

A549 cells [10] = conditions: Mani et al. Glycobiology 14: 387-397; cited from earlier work
[11] = tested on: SV40 virus infected fibroblasts; conditions: Mani et al. Glycobiology 14: 387-397; cited from earlier work
HepG2 hepatoma cells [12] = conditions: Mani et al. Glycobiology 14: 387-397; cited from earlier work
cells = assay: Uptake of xyloside when added to cells; assay type: cell-based
From the text: Referring to FIG. 4, the results of treating rat C6 glioma cells with peracetylated Gal-4-Xyl-2-Nap-6-OH are shown. […] The reason for this difference is that peracetylated Gal-4-Xyl-2-Nap-6-OH is deacetylated by non-specific esterases after uptake into cells, whereby the resulting non-acetylated Gal-4-Xyl-2-Nap-6-OH remains trapped inside the cell resulting in a much higher local concentration. Accordingly, non-acetylated Gal-4-Xyl-2-Nap-6-OH is not taken up when added to cells.

[13] = after uptake by DFMO-treated cells; cited from earlier work

Oc1ccc2cc(OC3OCC(O)C(O)C3O)ccc2c1 (centres unmarked) [Xyl-2-Nap-6-OH]
inhibits growth (rat C6 glioma cells; 0.5 mM xyloside alone): 65% | inhibits growth (rat C6 glioma cells; 0.5 mM xyloside combined with 5 mM DFMO and 5 μM spermineNONOate): 93% | effect on cell growth ([1]; 0.2 mM xyloside alone, FIG. 2): marginally affected | effect on cell growth ([1]; 0.2 mM xyloside and 5 mM DFMO with 2.5 5 μM spermineNONOate): insufficient | effect on cell growth ([1]; 0.2 mM xyloside combined with 5 mM DFMO and 5 μM spermineNONOate, FIG. 2): complete cell death | effect on cell growth ([1]; 0.5 mM xyloside alone, FIG. 2): completely growth-arrested | cytotoxic effect on T24 cells [1]: marginally cytotoxic | reduction of cell growth ([2]; 0.2 mM xyloside, 5 mM DFMO and 5 μM spermineNONOate, FIG. 3): 20% | effect of xyloside with DFMO and spermine-NONOate (A549 cells [3]): Synergistic cytotoxic effects | effect of xyloside with DFMO and spermine-NONOate [4]: Synergistic cytotoxic effects | effect of xyloside with DFMO and spermine-NONOate (HepG2 hepatoma cells [5]): Synergistic cytotoxic effects | subcutaneous C6 glioma tumor weight reduced ([6]; SCID mice, daily contralateral s.c. injections of 1.7 mM solution, 0.5 ml, 2 weeks, FIG. 6A): 78% | tumor-load reduced ([6]; mice treated with xyloside plus DFMO 0.1% w/v via the drinking water, FIG. 6C): 83% | blood-brain barrier penetration ([7]; inferred from reduced intracerebral tumor volume in rats): can penetrate the blood-brain barrier | tumor volume ([7]; rats, intracerebral C6 glioma, daily s.c. injections of 1.7 mM solution, 5 ml, 2 weeks, FIG. 6B): reduced | reduction of average tumor load ([8]; mice, compound given concomitant with tumor cell inoculation or to pre-formed tumors): 70-97% | toxic side-effects in vivo ([8]; mouse, in vivo): lack of obvious toxic side-effects | absorption and availability to tumor cells ([8]; various ways of administration including oral): adsorbed and made available to tumor cells | concentration of saturated solution [9]: 1700 µM | growth inhibition (A549 cells [10]): selectively inhibits growth | growth inhibition [11]: selectively inhibits growth | growth inhibition (HepG2 hepatoma cells [12]): selectively inhibits growth

CC(=O)Oc1ccc2cc(O[C@@H]3OC[C@@H](OC(C)=O)[C@H](OC(C)=O)[C@H]3OC(C)=O)ccc2c1 [peracetylated Xyl-2-Nap-6-OH]
cytotoxic effect on T24 cells [1]: clear cytotoxic effect | effect on growth of normal human fibroblasts ([2]; 0.5 mM xyloside, FIG. 5B): does not affect growth

NCCC[C@](N)(C(=O)O)C(F)F [DFMO, α-difluoromethylornithine, reference compound]
growth-inhibitory effect compared to untreated cells (control) (rat C6 glioma cells; 5 mM DFMO alone): no significant growth-inhibitory effect | higher concentration of DFMO in the drinking water required for the same effect with DFMO alone ([6]; relative to 0.1% w/v DFMO given with Xyl-2-Nap-6-OH (83% reduction)): 10-20 fold

CC(=O)OC[C@H]1O[C@@H](O[C@@H]2CO[C@@H](Oc3ccc4cc(OC(C)=O)ccc4c3)[C@H](OC(C)=O)[C@H]2OC(C)=O)[C@H](OC(C)=O)[C@@H](OC(C)=O)[C@H]1OC(C)=O [peracetylated Gal-4-Xyl-2-Nap-6-OH]
effect on cell growth (rat C6 glioma cells; 0.2 mM xyloside alone): complete growth-arrest | potency relative to Xyl-2-Nap-6-OH at the same concentrations (rat C6 glioma cells; comparison of FIG. 4 with FIG. 1B): at least 5 fold | effect on cell growth (rat C6 glioma cells; xyloside in combination with 5 mM DFMO and 5 μM spermineNONOate): significant cytotoxic effect

OC[C@H]1O[C@@H](O[C@@H]2CO[C@@H](Oc3ccc4cc(O)ccc4c3)[C@H](O)[C@H]2O)[C@H](O)[C@@H](O)[C@H]1O [Gal-4-Xyl-2-Nap-6-OH, 2-(6-hydroxynaphthyl)-4-O-(β-D-galactopyranosyl)-β-D-xylopyranoside]
uptake when added to cells (cells): not taken up

NCCCNCCCCN(CCCN)/[N+]([O-])=N/O [spermineNONOate, reference compound]
growth-inhibitory effect compared to untreated cells (control) (rat C6 glioma cells; 5 μM spermineNONOate alone): no significant growth-inhibitory effect | half-life of intracellular NO release [13]: 4 h
